Test results published in PubChem BioAssay (NCI).
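1) Cells in 96-well plates. 2) Compound, 48 h, 5 concentrations. 3) Linear interpolation between surrounding doses. 4) Unreached endpoint = highest concentration. The concentration for full growth arrest is given as TGI.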

Key:
Assay in all cases: growth of human tumour cells (NCI), 48 h
[1] = test system: 786-0 renal
[2] = test system: A498 renal
[3] = test system: A549 NSCLC
[4] = test system: ACHN renal
[5] = test system: BT-549 breast
[6] = test system: CAKI-1 renal
[7] = test system: CCRF-CEM leukemia
[8] = test system: COLO 205 colon
[9] = test system: DU-145 prostate
[10] = test system: EKVX NSCLC
[11] = test system: HCC-2998 colon
[12] = test system: HCT-116 colon
[13] = test system: HCT-15 colon
[14] = test system: HL-60(TB) leukemia
[15] = test system: HOP-62 NSCLC
[16] = test system: HOP-92 NSCLC
[17] = test system: HS 578T breast
[18] = test system: HT29 colon
[19] = test system: IGROV1 ovarian
[20] = test system: K-562 leukemia
[21] = test system: KM12 colon
[22] = test system: LOX IMVI melanoma
[23] = test system: M14 melanoma
[24] = test system: MALME-3M melanoma
[25] = test system: MCF7 breast
[26] = test system: MDA-MB-231 breast
[27] = test system: MDA-MB-435
[28] = test system: MDA-N
[29] = test system: MOLT-4 leukemia
[30] = test system: NCI-H226 lung
[31] = test system: NCI-H23 lung
[32] = test system: NCI-H460 lung
[33] = test system: NCI-H522 lung
[34] = test system: NCI/ADR-RES ovarian
[35] = test system: OVCAR-3 ovarian
[36] = test system: OVCAR-4 ovarian
[37] = test system: OVCAR-5 ovarian
[38] = test system: OVCAR-8 ovarian
[39] = test system: PC-3 prostate
[40] = test system: RXF 393 renal
[41] = test system: SF-268 CNS
[42] = test system: SF-295 CNS
[43] = test system: SF-539 CNS
[44] = test system: SK-MEL-2 melanoma
[45] = test system: SK-MEL-5 melanoma
[46] = test system: SK-OV-3 ovarian
[47] = test system: SN12C renal
[48] = test system: SNB-19 CNS
[49] = test system: SNB-75 CNS
[50] = test system: SR leukemia
[51] = test system: SW-620 colon
[52] = test system: T-47D breast
[53] = test system: TK-10 renal
[54] = test system: U251 CNS
[55] = test system: UACC-257 melanoma
[56] = test system: UACC-62 melanoma
[57] = test system: UO-31 renal

Measured: TGI

CSc1ccn(C2CC(F)C(CO)O2)c(=O)n1 (configuration not stated)
> 100 µM: all assays above
